Legend:
[1] = (§1) MMV: Anti-babesial activity assay. Parasite pRBCs at 1% parasitemia were cultivated in 100 ul with 96-well plates at 2.5% and 5% hematocrits. The parasites were cultivated in triplicate for 4 days without replacement of the medium for each concentration of the compound.; format: functional, Babesia bovis
[2] = as §1; format: functional, Babesia bigemina
[3] = as §1; format: functional, Babesia equi
[4] = as §1; format: functional, Babesia caballi

Row | SMILES | IC50 [1] | IC50 [2] | IC50 [3] | IC50 [4]
1 | CSC1=NC(=Nc2c(C)cccc2C)C2(CCC(C(C)(C)C)CC2)N1c1ccc(Cl)cc1 (stereo not drawn) | 18.4 µM | 17.1 µM | 11.5 µM | 15 µM
2 | Cc1cc(C)cc(Nc2cc(C)nc3nc(C(F)(F)F)nn23)c1 | 20.6 µM | 13.6 µM | 21.9 µM | 12.4 µM
3 | O=C(NCC(c1ccsc1)N1CCCCCC1)c1ccc(C(F)(F)F)cc1 (stereo not drawn) | 18.2 µM | 13.6 µM | 18.1 µM | 10 µM
4 | COc1ccc(-c2cc3c(SCC(=O)Nc4cc(C(F)(F)F)ccc4Cl)nccn3n2)cc1 | > 25 µM | 17.1 µM | 25 µM | 9.61 µM
5 | Cc1ccc(-c2cc3c(SCC(=O)Nc4cc(C(F)(F)F)ccc4Cl)nccn3n2)cc1 | 21.6 µM | 16.6 µM | 5.89 µM | 13.5 µM
6 | CCN(CC)CCNc1ncnc2c1[nH]c1ccc(Cl)cc12 | 17.6 µM | 16.2 µM | 3.42 µM | 2.64 µM
7 | CCOC(=O)c1cnc2ccc(CC)cc2c1O | > 25 µM | 17.5 µM | 14.9 µM | 13.5 µM
8 | CCCCCC(=O)N1c2ccccc2N=C2CC(c3ccc(OC)c(OC)c3)CC(O)=C2C1c1ccc(C(F)(F)F)cc1 (stereo not drawn) | > 25 µM | 16.2 µM | 21.9 µM | 14.2 µM
9 | Oc1ccccc1CN1CCC2(CCCN(Cc3ccccc3F)C2)C1 (stereo not drawn) | 14.3 µM | 0.73 µM | 0.1 µM | 5.06 µM
10 | Cc1ccc(-c2cc(C(=O)Nc3ccc(S(=O)(=O)N4CCCCC4)cc3)[nH]n2)c(O)c1 | > 25 µM | 2.45 µM | 8.25 µM | 10 µM
11 | COc1ccc(-c2nc(NC(=O)CS(=O)(=O)c3ccc(F)cc3)sc2C)cc1 | 17.9 µM | 17 µM | 13.4 µM | 14.6 µM
12 | FC(F)(F)c1ccc(Nc2nnnc3ccccc23)cc1 | 25 µM | 7.18 µM | 10 µM | 13.4 µM
13 | c1ccc(-c2ccc(-c3nc4ccccc4[nH]3)cc2)cc1 | 25 µM | 10 µM | 10 µM | 14.8 µM
14 | CCc1c(C)c(=N)c2ccccc2n1C | 18.4 µM | 3.42 µM | 7.23 µM | 0.26 µM
15 | COc1cccc(NC(=O)Cn2c(C)c(C#N)c3ccccc32)c1 | 9.04 µM | 14.8 µM | 7.3 µM | 10.1 µM
16 | CCC(c1ccccc1)c1nn2c(-c3cccs3)nnc2s1 (stereo not drawn) | 18.6 µM | 16.4 µM | 7.87 µM | 15.8 µM
17 | CC(C)(C)c1ccc(O)c(CNC2CCCCC2)c1 | 18.2 µM | 17 µM | 7 µM | 10 µM
18 | Cn1c(=O)c2cc(C(=O)NCCCN3CCCCCC3)sc2c2ccccc21 | 10 µM | 8.03 µM | 5.35 µM | 13.9 µM
19 | CC1CN(C(=O)c2sc3ccccc3c2Cl)CC(C)O1 (stereo not drawn) | > 25 µM | 18.2 µM | 23.1 µM | 19.2 µM
20 | CN(C)c1ccc(C=Cc2nc(=O)c3ccccc3o2)cc1 | 16.2 µM | 16.8 µM | 11.5 µM | 14.6 µM
21 | COc1ccc(C2=C(c3ccc(OC)cc3)C3(c4ccccc4)C(=O)C2(c2ccccc2)C2C(=O)N(c4ccc(C)cc4)C(=O)C23)cc1 (stereo not drawn) | 15.4 µM | 14.1 µM | 14.2 µM | 14.7 µM

Row | SMILES | IC50 [1] | IC50 [2] | IC50 [3] | IC50 [4]
22 | CCC1(C)CC(CCNCc2ccccc2O)(c2ccc(C)cc2)CCO1 (stereo not drawn) | 14.1 µM | 16.8 µM | 0.61 µM | 7.3 µM
23 | OC(CNC1CCCCC1)Cn1c2ccccc2c2ccccc21 (stereo not drawn) | 17.3 µM | 17.3 µM | 17.3 µM | 13.8 µM
24 | Cc1cc(Nc2ccc(C)c(Cl)c2)n2nc(C(F)(F)F)nc2n1 | 15 µM | 14.8 µM | > 25 µM | 0.69 µM
25 | COc1cccc(C=Cc2nc(=O)c3ccccc3o2)c1OC | > 25 µM | 20 µM | 16.5 µM | 22.3 µM
26 | Fc1ccc2[nH]c3c(NCCCN4CCOCC4)ncnc3c2c1 | 19.7 µM | 17.1 µM | 2.88 µM | 14.7 µM
27 | COc1ccc(C(=O)Nc2nonc2-c2ccc(OC)c(OC)c2)cc1Cl | > 25 µM | 19.3 µM | 20.4 µM | 15.9 µM
28 | COc1ccc(CNC2CCN(c3ccc(NC(=O)c4cccc(Cl)c4)cc3)CC2)cc1OC | 0.1 µM | 0.85 µM | 0.309 µM | 12.4 µM
29 | CC(NCc1ccccc1)c1cc(Cl)ccc1O (stereo not drawn) | 3.81 µM | 12 µM | 8.25 µM | 16.6 µM
30 | COc1ccc(NC(=O)C2c3ccccc3C(=O)N(CC(C)C)C2c2cccs2)cc1Cl (stereo not drawn) | 3.15 µM | 2.52 µM | 6.87 µM | 4.69 µM
31 | COc1ccc2c(c1)OC(O)(C(F)(F)C(F)(F)F)CC2=O (stereo not drawn) | > 25 µM | 15.7 µM | 17.7 µM | 11.8 µM
32 | FC(F)(F)c1cccc(CNC2CCN(CCc3ccccc3)CC2)c1 | 15.6 µM | 0.36 µM | 1.87 µM | 5.35 µM
33 | C=CC12CCN(CC1)C(C(O)c1ccnc3ccc(OC)cc13)C2 (stereo not drawn) | 17.3 µM | 14.4 µM | 3.21 µM | 13.1 µM
34 | Cc1ccc(-c2cc3nc4c(c(O)n3n2)CCCC4)cc1 | 7.31 µM | 15 µM | 7.05 µM | 15.8 µM
35 | COc1ccc(C(=O)Nc2ccc(Cl)cc2C(=O)Nc2ccncc2)cc1 | 3.53 µM | 0.65 µM | 10 µM | 6.4 µM
36 | COc1ccccc1CNC(=O)CCn1c(=O)[nH]c2ccccc2c1=O | 19.5 µM | 3.9 µM | 14.2 µM | 4.38 µM
37 | O=C(Nc1ccc(Cl)cc1)N1CCN(c2ccc3nncn3n2)CC1 | 16.3 µM | 1 µM | 1.02 µM | 16.3 µM
38 | CCN(CC)c1ccc(NC(=O)c2cccs2)cc1 | 24.1 µM | 17.5 µM | 13.4 µM | 10 µM
39 | CCCCNCC(O)(c1ccc(Cl)cc1)c1ccc(Cl)cc1 | 15.5 µM | 0.078 µM | 1 µM | 5.35 µM
40 | CCCC(c1nnnn1C1CCCCC1)N1CCN(C(=O)c2ccco2)CC1 (stereo not drawn) | 0.059 µM | 0.083 µM | 0.219 µM | 0.13 µM
41 | CCCc1cc(O)c2c3c(c(=O)oc2c1)CN(C)CC3 | 23.9 µM | 16.4 µM | 18.5 µM | 7.87 µM
42 | Cc1cc(NC(=O)C2c3ccccc3C(=O)N(CC(C)C)C2c2cccs2)no1 (stereo not drawn) | 12.6 µM | 2.57 µM | 3 µM | 13 µM

Row | SMILES | IC50 [1] | IC50 [2] | IC50 [3] | IC50 [4]
43 | COc1ccc(-c2nonc2NC(=O)c2cccc(C)c2)cc1OC | 0.078 µM | 0.69 µM | 5.64 µM | 10 µM
44 | Oc1ccccc1CNCC12CC3CC(CC(C3)C1)C2 | 14.7 µM | 15.9 µM | 13.1 µM | 10 µM
45 | COc1ccccc1CNC(=O)CCn1c(=O)[nH]c2ccsc2c1=O | 8.93 µM | 0.68 µM | 15.2 µM | 2.05 µM
46 | COc1ccc(Br)cc1C1Nc2ccc3ccccc3c2C2=C1C(=O)CC(c1ccccc1)C2 (stereo not drawn) | > 25 µM | 17.3 µM | > 25 µM | 13.1 µM
47 | Cc1ccc(Cn2c(N3CCC(C(=O)NCc4cccs4)CC3)nc3ccccc32)cc1 | 17.7 µM | 10 µM | 12.9 µM | > 25 µM
48 | CC1CCN(Cc2ccc(NC(=O)c3cc4ccc5cccnc5c4[nH]3)cc2)CC1 | 9.55 µM | 15.3 µM | 6.41 µM | 13.1 µM
49 | O=C(Nc1ccsc1C(=O)NC1CCCCC1)c1ccc(F)cc1 | 0.08 µM | 0.1 µM | 5.64 µM | 17.7 µM
50 | CC(C)(C)c1ccc(C(=O)Nc2nc3ccccc3s2)cc1 | 7 µM | 12.9 µM | 10 µM | 1 µM
51 | COc1ccccc1CNC(=O)C1c2ccccc2C(=O)N(CC(C)C)C1c1cccs1 (stereo not drawn) | 8.25 µM | 10 µM | 10 µM | 16.8 µM
52 | CCOc1ccc(-c2nonc2NC(=O)c2cccc(C)c2)cc1OCC | 19.9 µM | 13.1 µM | 18.5 µM | 17.5 µM
53 | CCOc1ccccc1CNC(=O)C1c2ccccc2C(=O)N(CC(C)C)C1c1cccs1 (stereo not drawn) | 0.83 µM | 0.1 µM | 12.4 µM | 14.3 µM
54 | COc1ccc(-c2nc3cc(Cc4ccc5[nH]c(-c6ccc(OC)cc6)nc5c4)ccc3[nH]2)cc1 | 5.58 µM | 7.5 µM | 8.12 µM | 3.21 µM
55 | CCOC(=O)c1ccc2nc(-c3ccccc3)cc(O)c2c1 | > 25 µM | 14.1 µM | > 25 µM | 14.2 µM
56 | COc1ccc(C(C)=O)cc1N1C(=O)C2C(C1=O)C1(c3ccccc3)C(=O)C2(c2ccccc2)C(c2ccc(C)cc2)=C1c1ccc(C)cc1 (stereo not drawn) | 17.5 µM | 15.5 µM | 16.9 µM | 8.46 µM
57 | CCCc1c(C)nc2ccccc2c1O | 15.3 µM | 2.96 µM | 2.4 µM | 3.7 µM
58 | CCCCCCOC(=O)C1=C(C)NC(=O)NC1c1ccccc1F (stereo not drawn) | > 25 µM | 14.8 µM | 15.2 µM | 4.9 µM
59 | CCN(CC)CCCNc1nc(-c2ccc(Cl)cc2)nc2ccccc12 | 0.73 µM | 2.16 µM | 0.25 µM | 5.93 µM
60 | Cc1ccc(Nc2nc(NCCO)c3ccccc3n2)cc1C | 3.63 µM | 6.36 µM | 2.2 µM | 5 µM
61 | COc1ccc(NC(=O)C2c3ccccc3C(=O)N(CC(C)C)C2c2cccs2)cc1 (stereo not drawn) | 12.6 µM | 17.3 µM | 8.02 µM | 9.09 µM
62 | c1ccc(Cn2c(N=Nc3c(Nc4ccccc4)ccc4ccccc34)nc3ccccc32)cc1 | 2.93 µM | 3.3 µM | 0.76 µM | 2.84 µM

— ChEMBL document CHEMBL3301464, “MMV Malaria Box anti-babesial screening”
